Measurements as given in ChEMBL document CHEMBL5346941, “Design, synthesis and evaluation of novel monoamine oxidase B (MAO-B) inhibitors with improved pharmacokinetic properties for Parkinson's disease” (Eur J Med Chem, 2023).
Activity calls are given as the source filed them. The rule behind the calls is not given here.

Tests used:
[1] = Clearance in fasted Sprague-Dawley rat at 1 mg/kg, iv measured for 24 hrs; type: ADME, organism-based; conditions: in vivo
[2] = Volume of distribution at steady state in fasted ICR mouse at 2 mg/kg, iv measured for 24 hrs; type: ADME, organism-based; conditions: in vivo, read-out: Vdss
[3] = Clearance in fasted ICR mouse at 2 mg/kg, iv measured for 24 hrs; type: ADME, organism-based; conditions: in vivo
[4] = Cmax in fasted ICR mouse at 5 mg/kg, IG measured for 24 hrs; type: ADME, organism-based; design: dose 5 mg/kg, time 24 hrs, route ig; conditions: in vivo, po
[5] = Drug concentration in Sprague-Dawley rat plasma at 5 mg/kg, ip measured after 120 mins by LC-MS/MS analysis; type: ADME, organism-based
[6] = Drug concentration in Sprague-Dawley rat brain at 5 mg/kg, ip measured after 15 mins by LC-MS/MS analysis; type: ADME, organism-based; conditions: read-out: Ct
[7] = Protein binding in monkey plasma at 0.1 to 10 uM incubated for 5 hrs by LC-MS/MS based rapid equilibrium dialysis method; type: ADME, cell-free, Macaca mulatta; conditions: rhesus monkey, dose 0.1-10 µM, read-out: PPB (converted)
[8] = Apparent permeability across apical to basolateral side in MDCKII-MDR1 cells at 10 uM incubated for 30 mins by LC-MS/MS analysis; type: ADME, cell-based, Canis lupus familiaris; conditions: dog, MDCK-MDR1
[9] = Apparent permeability across basolateral to apical side in MDCKII-MDR1 cells at 10 uM incubated for 30 mins by LC-MS/MS analysis; type: ADME, cell-based, Canis lupus familiaris; conditions: dog, MDCK-MDR1
[10] = target: Voltage-gated inwardly rectifying potassium channel KCNH2 (Homo sapiens, UniProt Q12809); assay: Inhibition of hERG transfected in CHO-K1 cells at -80 mV holding potential incubated for 2 mins by patch clamp assay; type: toxicity, cell-based
Voltage-gated inwardly rectifying potassium channel KCNH2, sequence (Q12809 whole entry): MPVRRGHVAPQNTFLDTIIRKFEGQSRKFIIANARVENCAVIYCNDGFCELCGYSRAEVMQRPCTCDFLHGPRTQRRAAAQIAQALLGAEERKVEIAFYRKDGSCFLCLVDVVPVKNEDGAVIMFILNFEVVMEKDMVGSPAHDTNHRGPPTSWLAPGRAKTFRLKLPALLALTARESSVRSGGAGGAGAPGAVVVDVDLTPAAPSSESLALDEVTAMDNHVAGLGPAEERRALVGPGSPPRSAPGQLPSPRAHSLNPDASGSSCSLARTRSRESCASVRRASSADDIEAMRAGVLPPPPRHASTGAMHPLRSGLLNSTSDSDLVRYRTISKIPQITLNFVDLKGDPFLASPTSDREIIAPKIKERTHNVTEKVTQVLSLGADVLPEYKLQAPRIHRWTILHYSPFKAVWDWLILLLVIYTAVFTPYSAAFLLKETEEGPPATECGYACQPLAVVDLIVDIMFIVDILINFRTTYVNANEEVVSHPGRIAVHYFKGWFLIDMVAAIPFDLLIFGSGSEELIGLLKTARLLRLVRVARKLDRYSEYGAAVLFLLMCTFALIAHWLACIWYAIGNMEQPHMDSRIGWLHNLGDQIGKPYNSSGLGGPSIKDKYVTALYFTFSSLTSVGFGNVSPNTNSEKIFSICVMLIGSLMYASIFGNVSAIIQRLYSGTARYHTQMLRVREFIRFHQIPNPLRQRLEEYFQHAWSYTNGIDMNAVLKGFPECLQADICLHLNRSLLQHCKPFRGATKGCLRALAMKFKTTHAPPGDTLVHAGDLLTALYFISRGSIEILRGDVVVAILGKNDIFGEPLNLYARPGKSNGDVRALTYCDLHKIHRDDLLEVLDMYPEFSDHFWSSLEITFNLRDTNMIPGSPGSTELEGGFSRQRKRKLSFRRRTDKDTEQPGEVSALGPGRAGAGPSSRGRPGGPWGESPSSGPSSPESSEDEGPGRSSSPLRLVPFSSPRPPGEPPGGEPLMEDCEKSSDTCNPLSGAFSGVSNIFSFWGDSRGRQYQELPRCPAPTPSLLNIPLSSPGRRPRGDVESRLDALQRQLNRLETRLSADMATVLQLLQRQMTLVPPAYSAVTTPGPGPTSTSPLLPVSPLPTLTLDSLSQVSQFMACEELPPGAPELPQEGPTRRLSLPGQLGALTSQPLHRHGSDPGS

Mus musculus [11] = assay: In vivo inhibition of MAO-B in ICR mouse assessed as reduction in enzyme activity in brain administered once intraperitoneally for 30 to 60 mins by amplex red based assay; type: functional, organism-based; conditions: dose 0.08-1.28 mg/kg, route ip, time 30-60 min
Mus musculus [12] = assay: In vivo inhibition of MAO-B in ICR mouse assessed as reduction in enzyme activity in brain at 2 mg/kg, ip administered once for 30 to 60 mins by amplex red based assay; type: functional, organism-based; conditions: time 30-60 min
Mus musculus [13] = assay: Anti-parkinson activity in MPTP-induced dopamine deficit C57BL/6 mouse model assessed as increase in dopamine concentration in striatum at 3 to 10 mg/kg, ip pretreated with MPTP for 4 hrs followed by compound administration for 5 times once every 4 hrs further incubated with L-dopa at 50 mg/kg for 30 mins prior to last dose and measured after 30 mins by HPLC analysis; type: functional, organism-based; conditions: dose 3-10 mg/kg, time 16.5 hrs

NC(=O)[C@@H]1C[C@H](F)CN1Cc1ccc2oc(-c3ccc(F)cc3)cc2c1
clearance [1]: 54.2 mL/min/kg
Vd [2]: 2.72 L/kg
clearance [3]: 11 mL/min/kg
Cmax [4]: 913 ng/mL
concentration at 2 h [5]: 458 ng/mL
concentration at 0.25 h [6]: 5560 ng/g
fraction unbound at 5 h, up to 10 µM [7]: 0.0029
Papp A→B at 0.5 h, 10 µM [8]: 8.78 ×10⁻⁶ cm/s
Papp B→A at 0.5 h, 10 µM [9]: 2.97 ×10⁻⁶ cm/s
IC50 [10]: > 30 µM
inhibition (Mus musculus [11]): Active
inhibition (Mus musculus [12]): Active
Activity (Mus musculus [13]): Active
